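Compound exposure: 48 hours, 5 concentrations, 96-well plates. GI50 marks 50% less growth.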 Activity calls are given as the source filed them. Cut-off read from the data, not from the text of the source: active = GI50 up to about 1.1 µM and inactive = higher.
Legend:
Experiment in all cases: inhibition of tumour cell growth, NCI panel, 48 h
[1] = test system: 786-0
[2] = test system: A549
[3] = test system: ACHN
[4] = test system: CAKI-1
[5] = test system: CCRF-CEM
[6] = test system: COLO 205
[7] = test system: DLD-1
[8] = test system: DMS-114
[9] = test system: DMS-273
[10] = test system: EKVX
[11] = test system: HCC 2998
[12] = test system: HCT-15
[13] = test system: HL-60
[14] = test system: HOP-18
[15] = test system: HOP-62
[16] = test system: HOP-92
[17] = test system: HT-29
[18] = test system: K562
[19] = test system: KM-20L2
[20] = test system: KM12
[21] = test system: LOX IMVI
[22] = test system: LXFL 529
[23] = test system: M14
[24] = test system: MOLT-4
[25] = test system: Malme-3M
[26] = test system: NCI-H226
[27] = test system: NCI-H23
[28] = test system: NCI-H460
[29] = test system: NCI-H522
[30] = test system: OVCAR-3
[31] = test system: OVCAR-4
[32] = test system: OVCAR-5
[33] = test system: OVCAR-8
[34] = test system: RPMI-8226
[35] = test system: RXF 393
[36] = test system: RXF 631
[37] = test system: SF-268
[38] = test system: SF-295
[39] = test system: SK-MEL-28
[40] = test system: SK-MEL-2
[41] = test system: SK-MEL-5
[42] = test system: SK-OV-3
[43] = test system: SN12C
[44] = test system: SNB-19
[45] = test system: SNB-75
[46] = test system: SNB-78
[47] = test system: SW-620
[48] = test system: TK-10
[49] = test system: U-251
[50] = test system: UACC-257
[51] = test system: UO-31
[52] = test system: XF498
[53] = test system: HCT-116
[54] = test system: IGROV-1
[55] = test system: M19-MEL
[56] = test system: SF-539
[57] = test system: SR
[58] = test system: UACC-62

## O=C(c1ccccc1)C(c1ccccc1)C1(O)C(=O)Nc2c(Cl)cc(Cl)cc21 (centres undefined)
[1]
  GI50: 14.7 µM (inactive)
[2]
  GI50: 18.9 µM (inactive)
[3]
  GI50: 17.1 µM (inactive)
[4]
  GI50: 17.4 µM (inactive)
[5]
  GI50: 14 µM (inactive)
[6]
  GI50: 19.1 µM (inactive)
[7]
  GI50: 17.7 µM (inactive)
[8]
  GI50: 16.5 µM (inactive)
[9]
  GI50: 27.4 µM (inactive)
[10]
  GI50: 14.2 µM (inactive)
[11]
  GI50: 16.3 µM (inactive)
[12]
  GI50: 39.4 µM
[13]
  GI50: 12.6 µM (inactive)
[14]
  GI50: 14.9 µM (inactive)
[15]
  GI50: > 10 µM (inactive)
[16]
  GI50: 18.9 µM (inactive)
[17]
  GI50: 23.9 µM (inactive)
[18]
  GI50: 15.5 µM (inactive)
[19]
  GI50: 36.8 µM (inactive)
[20]
  GI50: 23 µM (inactive)
[21]
  GI50: 19.5 µM (inactive)
[22]
  GI50: 11.4 µM (inactive)
[23]
  GI50: 17.9 µM (inactive)
[24]
  GI50: 20.3 µM (inactive)
[25]
  GI50: 18.6 µM (inactive)
[26]
  GI50: 16.7 µM (inactive)
[27]
  GI50: 18 µM (inactive)
[28]
  GI50: 28.2 µM (inactive)
[29]
  GI50: 16.6 µM (inactive)
[30]
  GI50: 26 µM (inactive)
[31]
  GI50: 13.7 µM (inactive)
[32]
  GI50: 17.1 µM (inactive)
[33]
  GI50: 16.1 µM (inactive)
[34]
  GI50: 8.34 µM (inactive)
[35]
  GI50: 19.1 µM (inactive)
[36]
  GI50: 18.9 µM (inactive)
[37]
  GI50: 21.2 µM (inactive)
[38]
  GI50: 17.7 µM (inactive)
[39]
  GI50: 18.9 µM (inactive)
[40]
  GI50: 16.8 µM (inactive)
[41]
  GI50: 15.8 µM (inactive)
[42]
  GI50: 30.2 µM (inactive)
[43]
  GI50: > 100 µM (inactive)
[44]
  GI50: 21.7 µM (inactive)
[45]
  GI50: 15.3 µM (inactive)
[46]
  GI50: 24.7 µM (inactive)
[47]
  GI50: 14.4 µM (inactive)
[48]
  GI50: 18.3 µM (inactive)
[49]
  GI50: 26.2 µM (inactive)
[50]
  GI50: 18.6 µM (inactive)
[51]
  GI50: 18.9 µM (inactive)
[52]
  GI50: > 100 µM (inactive)

## O=C(CC1(O)C(=O)Nc2c(Cl)cc(Cl)cc21)c1ccc(F)cc1 (centres undefined)
[1]
  GI50: 19.8 µM (inactive)
[2]
  GI50: 59 µM (inactive)
[3]
  GI50: 35.9 µM (inactive)
[4]
  GI50: 92 µM (inactive)
[6]
  GI50: 19 µM (inactive)
[7]
  GI50: 46.8 µM (inactive)
[8]
  GI50: 23.9 µM (inactive)
[9]
  GI50: 38.2 µM (inactive)
[10]
  GI50: 68.7 µM (inactive)
[11]
  GI50: 40 µM (inactive)
[53]
  GI50: 35.4 µM (inactive)
[12]
  GI50: 30.6 µM
[14]
  GI50: 72.1 µM (inactive)
[15]
  GI50: 48 µM (inactive)
[16]
  GI50: 47.1 µM (inactive)
[17]
  GI50: 27.3 µM (inactive)
[54]
  GI50: 28.3 µM (inactive)
[19]
  GI50: 53 µM (inactive)
[20]
  GI50: 37.2 µM (inactive)
[21]
  GI50: 24.7 µM (inactive)
[22]
  GI50: 31.9 µM (inactive)
[23]
  GI50: 32.7 µM (inactive)
[55]
  GI50: 19 µM (inactive)
[25]
  GI50: 41.9 µM (inactive)
[26]
  GI50: 33.3 µM (inactive)
[27]
  GI50: 28.5 µM (inactive)
[28]
  GI50: 38.8 µM (inactive)
[30]
  GI50: 37.6 µM (inactive)
[31]
  GI50: 27.8 µM (inactive)
[32]
  GI50: 64.7 µM (inactive)
[33]
  GI50: 21.2 µM (inactive)
[34]
  GI50: 24.9 µM (inactive)
[35]
  GI50: 27 µM (inactive)
[36]
  GI50: 32.5 µM (inactive)
[37]
  GI50: 39.6 µM (inactive)
[38]
  GI50: 34.7 µM (inactive)
[56]
  GI50: 28.4 µM (inactive)
[39]
  GI50: 71.6 µM (inactive)
[40]
  GI50: 46.8 µM (inactive)
[42]
  GI50: 93.8 µM (inactive)
[43]
  GI50: 28.4 µM (inactive)
[44]
  GI50: 59.3 µM (inactive)
[45]
  GI50: 25.9 µM (inactive)
[46]
  GI50: 83.9 µM (inactive)
[57]
  GI50: 29.2 µM (inactive)
[47]
  GI50: 43.7 µM (inactive)
[48]
  GI50: > 100 µM (inactive)
[49]
  GI50: 31.3 µM (inactive)
[50]
  GI50: 27.6 µM (inactive)
[58]
  GI50: 35.8 µM (inactive)
[51]
  GI50: 42.1 µM (inactive)
[52]
  GI50: 14.4 µM (inactive)

From ChEMBL document CHEMBL1201862, “PubChem BioAssay data set” (2004)
